US20140135357A1, “DOSE REGIME FOR CAMPTOTHECIN DERIVATIVES” (Taiwan Liposome Company, Ltd., priority 2012, published 2014)
Like-named read-outs stand apart in the source and are kept apart here.

Key:
clinical = conditions: human, in vivo
Protocol: (§1) A non-randomized phase I clinical trial was conducted at 4 institutions in the US and Taiwan.
(§2) Patients were included in this trial if they are over the age of 18, with advanced cancer and the ECOG performance status is 0 or 1. […] Patients were excluded from the study if they have previously received more than 3 regimens of chemotherapy, or if they have received chemotherapy or radiotherapy within 4 weeks of the trial recruitment.
(§3) Eligible patients were given the pharmaceutical composition of the present invention, comprising a mixture of TLC388HCl and mPEG2000-DSPE in a molar ratio of 1:0.7 to 1:0.9 (known as Lipotecan®). […] The pharmaceutical composition was administered as a 30-min IV infusion, on days 1, 8, and 15 of a 28-day cycle (i.e. 3 IV infusions per 28-day cycle).
(§4) Serum samples were collected from the patients for pharmacokinetic analysis on day 1, day 8 and day 15 of Cycles 1 and 2, at the following times:
(§5) Post IV infusion: (Day 1 and 8 of Cycle 1): 33 min; 40 min; 50 min; 1 h; 1 h 30 min; 2 h; 4 h and 8 h. Post IV infusion (Day 15 of Cycle 1 and Day 1, 8, and 15 of Cycle 2): 4 h. Patients were assessed every 8 weeks, after 2 cycles of treatments.
(§6) During the 2-cycle study period, the patients were examined regularly for the following outcomes: • Side effect/DLT; • The pK profiles of the (S,S) and (S,R) diastereomers of TLC388HCl, its 3 metabolites (TLC-U1, TLC-U2 and Topotecan) on day 1 and day 8 of the treatment cycle; and • Anti-cancer efficacy.

[1] = human, in vivo
Protocol: as §1, §2, §3, §4, §5, §6

Molecule `CC[C@@]1(O)C(=O)OCc2c1cc1n(c2=O)Cc2cc3c(CN(C)C)c(O)ccc3nc2-1` [Topotecan, reference compound] has an AUC0-t (clinical; 1.3 mg/m2, AUC0-t) of 0.00532 µg·h/mL, a Cmax (clinical; 1.3 mg/m2, Cmax) of 1.06 ng/mL and a Tmax (clinical; 1.3 mg/m2, Tmax) of 0.906 h. For the same molecule, the half-life (clinical; 1.3 mg/m2, t1/2) was 4.32 h, the AUC0-t (clinical; 1.5 mg/m2, AUC0-t) was 0.00601 µg·h/mL and the Cmax (clinical; 1.5 mg/m2, Cmax) was 1.52 ng/mL. It also gave a Tmax (clinical; 1.5 mg/m2, Tmax) of 0.628 h, a half-life (clinical; 1.5 mg/m2, t1/2) of 4.76 h and an AUC0-t (clinical; 3 mg/m2, AUC0-t) of 0.0117 µg·h/mL. The Cmax (clinical; 3 mg/m2, Cmax) was 2.1 ng/mL, the half-life (clinical; 3 mg/m2, t1/2) was 7.03 h and the AUC0-t (clinical; 6 mg/m2, AUC0-t) was 0.0215 µg·h/mL. For the same molecule, the Cmax (clinical; 6 mg/m2, Cmax) was 4.83 ng/mL, the Tmax (clinical; 6 mg/m2, Tmax) was 0.989 h and the half-life (clinical; 6 mg/m2, t1/2) was 6.87 h. It also gave an AUC0-t (clinical; 9 mg/m2, AUC0-t) of 0.0276 µg·h/mL, a Cmax (clinical; 9 mg/m2, Cmax) of 6.38 ng/mL and a Tmax (clinical; 9 mg/m2, Tmax) of 1.15 h. It also gave a half-life (clinical; 9 mg/m2, t1/2) of 7.7 h, an AUC0-t (clinical; 13.5 mg/m2) of 0.0376 µg·h/mL and a Cmax (clinical; 13.5 mg/m2) of 8.71 ng/mL. For the same molecule, the half-life (clinical; 13.5 mg/m2) was 6.29 h, the half-life (clinical; 20 mg/m2) was 4.65 h and the AUC0-t (clinical; 20 mg/m2, AUC0-t) was 0.0473 µg·h/mL. The Cmax (clinical; 20 mg/m2, Cmax) was 11.3 ng/mL, the Tmax (clinical; 20 mg/m2, Tmax) was 0.483 h and the half-life (clinical; 20 mg/m2, t1/2) was 5.07 h. It also gave a half-life (clinical; 30 mg/m2) of 4.63 h, an AUC0-t (clinical; 30 mg/m2, AUC0-t) of 0.097 µg·h/mL and a Tmax (clinical; 30 mg/m2, Tmax) of 1.54 h. For the same molecule, the half-life (clinical; 30 mg/m2, t1/2) was 4.06 h, the AUC0-t (clinical; 35 mg/m2, AUC0-t) was 0.176 µg·h/mL and the Cmax (clinical; 35 mg/m2, Cmax) was 51.3 ng/mL. For the same molecule, the Tmax (clinical; 35 mg/m2, Tmax) was 1 h, the half-life (clinical; 35 mg/m2, t1/2) was 7.66 h and the Tmax (clinical; 40 mg/m2, Tmax) was 0.85 h. For the same molecule, the half-life (clinical; 40 mg/m2, t1/2) was 5.84 h, the half-life (clinical; 50 mg/m2) was 5.51 h and the AUC0-t (clinical; 50 mg/m2, AUC0-t) was 0.208 µg·h/mL. It also gave a Cmax (clinical; 50 mg/m2, Cmax) of 37.5 ng/mL, a Tmax (clinical; 50 mg/m2, Tmax) of 0.903 h and a half-life (clinical; 50 mg/m2, t1/2) of 7.39 h. The AUC0-t (clinical; 60 mg/m2, AUC0-t) was 0.215 µg·h/mL, the Cmax (clinical; 60 mg/m2, Cmax) was 57.1 ng/mL and the Tmax (clinical; 60 mg/m2, Tmax) was 0.837 h. The half-life (clinical; 60 mg/m2, t1/2) was 5.18 h, the Tmax (clinical; 60 mg/m2, tmax) was 0.93 ± 0.82 h and the half-life (clinical; T1/2) was over 2.5 h. For the same molecule, the “Dose-normalized AUClast” value [1] was 8.52 ± 3.09 nM*h/(mg/m^2), the “Dose-normalized Cmax” value [1] was 1.95 ± 1.04 nM/(mg/m^2) and the “difference between PK profiles on Day 1 and Day 8” value [1] was “no significant difference”. For the same molecule, the “dose proportionality of exposure” value [1] was “roughly dose proportional”, the AUC0-t ([1]; 3 mg/m2) was 0.007866 µg·h/mL and the AUC0-t ([1]; 6 mg/m2) was 0.021656 µg·h/mL. It also gave an AUC0-t ([1]; 9 mg/m2) of 0.037978 µg·h/mL, an AUC0-t ([1]; 20 mg/m2) of 0.044026 µg·h/mL and an AUC0-t ([1]; 30 mg/m2) of 0.12074 µg·h/mL. For the same molecule, the AUC0-t ([1]; 35 mg/m2) was 0.19091 µg·h/mL, the Cmax ([1]; 35 mg/m2) was 58.075 ng/mL and the Tmax ([1]; 35 mg/m2) was 0.604 (0.156) hr. The t1/2 ([1]; 35 mg/m2) was 6.177 (3.376) hr, the AUC0-t ([1]; 50 mg/m2) was 0.2073 µg·h/mL and the AUC0-t ([1]; 60 mg/m2) was 0.20743 µg·h/mL. For the same molecule, the “time at which peak plasma concentrations (Cmax) were achieved” value ([1]; iv) was “within one hour” and the “time of rapid rise of the metabolites in the serum after starting the infusion” value ([1]; iv) was at most 15 min.
